Measured values: paper PMC9849758, “Chemically diverse activity-based probes with unexpected inhibitory mechanisms targeting trypsin-like serine proteases” (Frontiers in Chemistry, 2023)
Entries after “also recorded” stand apart in the source; their conditions may differ. Counter-ions that a name gives are not always drawn. Like-named read-outs stand apart in the source and are kept apart here.

Assays:
Format in all cases: biochemical
[1] = target: T1, uPA (recombinant urokinase plasminogen activator) (Homo sapiens, UniProt P00749); assay: IC50 determination, spectrophotometric protease assay
T1 construct: purchased HYPHEN BioMed
Method in brief: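 Readout is liberation of para-nitroaniline or 7-amino-4-methylcoumarin from the protease substrate, each at Km, measured for 30 min at 37°C. IC50 comes from a four-parameter logistic fit of duplicate runs.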

Thrombin [2] = target: T2, Thrombin (Homo sapiens, UniProt P00734); assay: Jump dilution, determination of inhibition type; settings: inhibitor at 10 times IC50, 15 min, diluted 10-fold or 100-fold; Rev./Irrev.
T2 construct: purchased R&D
Method: The dissociation of the enzyme-inhibitor complex was monitored by substrate hydrolysis over time ([Joossens et al., 2006]).
Because ABPs are designed to be irreversible serine protease inhibitors, the IC50 is exclusively used as a first discriminatory evaluation. When an inhibitor is irreversible, its IC50 value not only depends on the substrate and enzyme concentration but also on the time of incubation with the enzyme before the reaction is started by adding the substrate. […] The progress curve in the presence of an irreversible inhibitor will show final velocities equal to zero (Figure 6C). In contrast, for a reversible inhibitor, progress curves have a non-zero final steady-state velocity (Figure 6A) ([McWhirter, 2021]). To corroborate the inhibitory mechanism of the compounds, jump-dilution assays were performed. These use an inhibitor concentration of 10-fold the IC50 for the incubation, and a posteriori, the reaction mixture is diluted 10-fold or 100-fold before adding the substrate. In the case of an irreversible inhibitor, enzymatic activity is not regained (Figure 6D), whereas, in the case of a reversible compound, a slow release of the inhibitor and a gradual increase of the enzymatic activity rate is observed (Figure 6B) ([Copeland, 2013]; [McWhirter, 2021]). The jump-dilution assays confirmed the behavior described by the progress curves.
2.2.2 Jump dilution results
Supplementary Table 2. Jump dilution of selected alkyne and desthiobiotin probes against a panel of trypsin-like serine proteases. […]
# R R DtBa 3 tryptase Thrombin uPA CatG
32b H Alk Irrev. Irrev. Rev. Irrev. Rev.
45b DtB Irrev. Irrev. Rev. N.D. N.D.
33b Alk Irrev. Irrev. Rev. Irrev. Rev.
46b Cl DtB Irrev. Irrev. Rev. N.D. N.D.
34b H Alk Rev. Rev. Rev. Irrev. Rev.
50b DtB Rev. Rev. Rev. Irrev. Rev.
35b Alk Rev. Rev. Rev. Irrev. Rev.
52b NHCOMe DtB Rev. Rev. Rev. Irrev. Rev.
36b Alk Rev. Rev. Rev. Irrev. Rev.
54b Cl DtB Rev. Rev. Rev. Irrev. Rev.
37b Alk Irrev. Irrev. N.D. Irrev. Irrev.
55b H DtB Irrev. Irrev. N.D. Irrev. Irrev.
38b Alk Irrev. Irrev. N.D. Irrev. Irrev.
56b NHCOMe DtB Irrev. Irrev. N.D. Irrev. Irrev.
39b Alk Irrev. Irrev. N.D. Irrev. Rev.
57b Cl DtB Irrev. Irrev. N.D. Irrev. Rev.
41b H Alk Irrev. Irrev. Irrev. N.D. N.D.
31b Pro-Lys H Alk Irrev. Irrev. Irrev. Irrev. N.D. a Alk: ABP precursor bearing an alkyne; DtB: desthiobiotin probe b Panel of serine proteases abbreviations: urokinase plasminogen activator (uPA), cathepsin G (catG) N.D.: IC50 is greater than 10µM, and jump dilution was not performed
2.2.3 Progress curves and Jump dilution experiments
Kinetic assays were performed in the following manner. The inhibitor was mixed with the substrate, and the buffer solution with the enzyme was added at the time zero. The progress curves show the release of para-nitroaniline (pNA) or 7-amino-4-methyl coumarin (AMC) as a function of time.
To monitor the dissociation of the inhibitor-enzyme, aliquots of the enzyme were incubated at 37 °C without and with the inhibitor at a concentration 10 times higher than its IC 50. The enzyme […]
min, the aliquots were diluted 10-fold or 100-fold into the substrate concentration and assay buffer used for the IC50 determination. The dissociation of the enzyme-inhibitor complex was monitored by substrate hydrolysis over time. Blue lines represent the control where no inhibitor was present. Pink lines represent the assay with inhibitor.

Thrombin [3] = target: T2, Thrombin; assay: Kinetic progress curves (kapp, K1, KI*, mechanism); settings: for Thrombin kapp: apparent second-order rate constant from progress curves; for Thrombin kapp / Ki: mean ± SD; for Thrombin mechanism of inhibition: defined by the progress curves: slow-binding (Rev.) or irreversible (Irrev.)
Method: Because the compounds described in this paper were previously described as irreversible inhibitors, the IC50 value is inversely correlated with the second-order rate constant of inactivation. For a simple pseudo-first-order inactivation process, the activity after incubation with inhibitor (vi) varies with the inhibitor concentration (i), as described in the following equation: vi=v0·e^−kit where v0 is the activity in the absence of an inhibitor, k is the second-order rate constant of inactivation, and t is the time. The inactivation rate constant was determined from the time course of inhibition.
Kinetic assays were performed in the following manner. The inhibitor was mixed with the substrate, and the buffer solution with the enzyme was added at the time zero. The progress curves show the release of pNA or AMC as a function of time. Initially, no inhibitor is bound to the enzyme, and the tangent to the progress curve (dA/dt) is proportional to the free enzyme concentration. The free enzyme concentration decreases over time due to inhibitor binding kinetics, as described above. Progress curves were recorded in pseudo-first-order conditions ([I]0>>[E]0) and with less than 10% conversion of the substrate during the entire time course. In these conditions, dA/dt decreases exponentially with time. The progress curves were fitted with the integrated rate equation with GraFit7 to yield a value for kobs, a pseudo-first-order rate constant. At=Ao+vs∙t+vi−vs∙1−e^−kobs∙t/kobs where At is the absorbance at time t, A0 is the absorbance at time zero, vi is the initial rate and vs is the velocity at the steady-state.
The apparent second-order rate constant (kapp) was calculated from the slope of the linear part of the plot of kobs vs. the inhibitor concentration ([I]0). In the case of competition between the inhibitor and the substrate, kapp is smaller than the “real” second-order rate constant k discussed above because a certain fraction of the enzyme is present as an enzyme-substrate complex. kapp depends on the substrate concentration used in the experiment, as described by [Lambeir et al. (1996)].
The apparent equilibrium constants were obtained from the following equations, vi/vo=1/1+I/K1; vS/vo=1/1+I/KI* where vi is the initial rate, vs is the steady-state velocity and vo is the uninhibited initial rate.

[4] = read-out: uPA IC50, desthiobiotin probes, 15 min preincubation at 37°C, mean ± SD
[5] = Thrombin K1, apparent equilibrium constant of the first step of slow-binding
[6] = Thrombin KI*, apparent equilibrium constant of the overall process

Row | SMILES | IC50 [1] [nM] | uPA IC50 ([1]; alkyne probes, 15 min preincubation at 37°C, mean ± SD) | Thrombin jump dilution result (Thrombin [2]) | Thrombin kapp (Thrombin [3]) | Thrombin mechanism of inhibition (Thrombin [3]) | IC50 [1, 4] [nM] | Ki (Thrombin [3]; read-out: Thrombin K1, apparent equilibrium constant of the first step of slow-binding) [nM] | Ki (Thrombin [3]; read-out: Thrombin KI*, apparent equilibrium constant of the overall process) [nM] | Ki (Thrombin [3]; [5]) [nM] | Ki (Thrombin [3]; [6]) [nM]
1 | C#CCCCOC(=O)NC(C1CCN(C(=N)N)CC1)P(=O)(Oc1ccccc1)Oc1ccccc1 (stereo not drawn) [41b] | > 10000 | no inhibition | Irrev. | 41 × 10^2 ± 38 M^−1 s^−1 | irreversible inhibition; also recorded: Irrev |  |  |  |  | 
2 | C#CCCCOC(=O)NC(c1ccc(NC(=N)N)cc1)P(=O)(Oc1ccc(Cl)cc1)Oc1ccc(Cl)cc1 (stereo not drawn) [39b, Pent-4-yn-1-yl ((bis(4-chlorophenoxy)phosphoryl)(4-guanidinophenyl)methyl)carbamate] | 220 ± 60 |  |  |  |  |  |  |  |  | 
3 | C[C@@H]1NC(=O)N[C@@H]1CCCCCC(=O)NCCOCCOCCOCCn1cc(CCCOC(=O)NC(CCCNC(=N)N)P(=O)(Oc2ccc(Cl)cc2)Oc2ccc(Cl)cc2)nn1 (stereo partly drawn) [46b] |  |  | Rev. | 63 × 10^2 ± 290 M^−1 s^−1 | Rev. | 420 ± 50 | 950 ± 200 | 70 ± 9 |  | 
4 | C#CCCCOC(=O)NC(CCCNC(=N)N)P(=O)(Oc1ccc(Cl)cc1)Oc1ccc(Cl)cc1 (stereo not drawn) [33b] | 250 ± 30 |  | Rev. | 11 × 10^2 ± 42 M^−1 s^−1 | reversible inhibition and Rev. |  |  |  | 4130 ± 700 | 280 ± 40
5 | C#CCCCOC(=O)NC(Cc1ccc(NC(=N)N)cc1)P(=O)(Oc1ccc(Cl)cc1)Oc1ccc(Cl)cc1 (stereo not drawn) [36b] | 5 ± 0.3 |  | Rev. | 251 ± 16 M⁻¹ s⁻¹ | Rev. |  |  |  | 9030 ± 500 | 30 ± 2
6 | CC(=O)Nc1ccc(OP(=O)(Oc2ccc(NC(C)=O)cc2)C(Cc2ccc(NC(=N)N)cc2)NC(=O)OCCCc2cn(CCOCCOCCOCCNC(=O)CCCCC[C@H]3NC(=O)N[C@H]3C)nn2)cc1 (stereo partly drawn) [52b] | 10 ± 3 |  | Rev. | 49 ± 5 M⁻¹ s⁻¹ | Rev. |  |  |  |  | 620 ± 80
7 | C#CCCCOC(=O)NC(c1ccc(NC(=N)N)cc1)P(=O)(Oc1ccc(NC(C)=O)cc1)Oc1ccc(NC(C)=O)cc1 (stereo not drawn) [38b, Pent-4-yn-1-yl ((bis(4-acetamidophenoxy)phosphoryl)(4-guanidinophenyl)methyl) carbamate] | 1520 ± 400 |  |  |  |  |  |  |  |  | 
8 | C[C@@H]1NC(=O)N[C@@H]1CCCCCC(=O)NCCOCCOCCOCCn1cc(CCCOC(=O)NC(Cc2ccc(NC(=N)N)cc2)P(=O)(Oc2ccccc2)Oc2ccccc2)nn1 (stereo partly drawn) [50b, 3-(1-(18-((4R,5S)-5-methyl-2-oxoimidazolidin-4-yl)-13-oxo-3,6,9-trioxa-12-azaoctadecyl)-1H-1,2,3-triazol-4-yl)propyl (1-(diphenoxyphosphoryl)-2-(4-guanidinophenyl)ethyl)carbamate trifluoroacetate salt] | 20 ± 0.1 |  | Rev. | 47 ± 5 M⁻¹ s⁻¹ | Rev. |  |  |  |  | 1550 ± 250
9 | C#CCCCOC(=O)NC(c1ccc(NC(=N)N)cc1)P(=O)(Oc1ccccc1)Oc1ccccc1.O=C(O)C(F)(F)F (stereo not drawn) [37b, Pent-4-yn-1-yl ((diphenoxyphosphoryl)(4-guanidinophenyl)methyl)carbamate trifluoroacetate salt] | 1790 ± 3 |  |  |  |  |  |  |  |  | 
10 | C[C@@H]1NC(=O)N[C@@H]1CCCCCC(=O)NCCOCCOCCOCCn1cc(CCCOC(=O)NC(c2ccc(NC(=N)N)cc2)P(=O)(Oc2ccc(Cl)cc2)Oc2ccc(Cl)cc2)nn1 (stereo partly drawn) [57b] |  |  |  |  |  | 160 ± 40 |  |  |  | 
11 | C#CCCCOC(=O)NC(CCCNC(=N)N)P(=O)(Oc1ccccc1)Oc1ccccc1 (stereo not drawn) [32b] | 4800 ± 80 |  | Rev. | 64 ± 8 M⁻¹ s⁻¹ | Rev. |  |  |  | 22600 ± 5000 | 450 ± 30
12 | C[C@@H]1NC(=O)N[C@@H]1CCCCCC(=O)NCCOCCOCCOCCn1cc(CCCOC(=O)NC(Cc2ccc(NC(=N)N)cc2)P(=O)(Oc2ccc(Cl)cc2)Oc2ccc(Cl)cc2)nn1 (stereo partly drawn) [54b] | 6 ± 0.1 |  | Rev. |  | * ^d Rev. |  |  |  |  | 60 ± 6
13 | C#CCCCOC(=O)NC(Cc1ccc(NC(=N)N)cc1)P(=O)(Oc1ccccc1)Oc1ccccc1 (stereo not drawn) [34b] |  |  | Rev. | 17 ± 1 M⁻¹ s⁻¹ | Rev. |  |  |  | 134000 ± 26000 | 4930 ± 510
14 | C[C@@H]1NC(=O)N[C@@H]1CCCCCC(=O)NCCOCCOCCOCCn1cc(CCCOC(=O)NC(c2ccc(NC(=N)N)cc2)P(=O)(Oc2ccccc2)Oc2ccccc2)nn1 (stereo partly drawn) [55b] |  |  |  |  |  | 2220 ± 70 |  |  |  | 
15 | CC(=O)Nc1ccc(OP(=O)(Oc2ccc(NC(C)=O)cc2)C(NC(=O)OCCCc2cn(CCOCCOCCOCCNC(=O)CCCCC[C@H]3NC(=O)N[C@H]3C)nn2)c2ccc(NC(=N)N)cc2)cc1 (stereo partly drawn) [56b] |  |  |  |  |  | 5190 ± 80 |  |  |  | 
